Laboratory results: ChEMBL document CHEMBL4627257, “Targeting the DNA damage response (DDR) by natural compounds” (Bioorg Med Chem, 2020)
Calls of active or inactive are those of the source. No cut-off for these calls is given here.

Assays:
SU.86.86 [1] = assay: Induction of DNA damage in human SU8686 cells assessed as increase in gammaH2AX phosphorylation at […] at cytotoxic IC50 incubated for 24 hrs by fluorometry method; format: functional
SU.86.86 [2] = assay: Induction of DNA damage in human SU8686 cells assessed as increase in gammaH2AX phosphorylation at […] at cytotoxic IC50 in presence of 0.3 uM doxorubicin by fluorometry method; format: functional
SU.86.86 [3] = assay: Induction of DNA damage in human SU8686 cells assessed as increase in gammaH2AX phosphorylation at […] at cytotoxic IC50 in presence of 5 uM cisplatin by fluorometry method; format: functional
SU.86.86 [4] = assay: Induction of DNA damage in human SU8686 cells assessed as tail DNA formation at IC50 by alkaline Comet assay; format: functional, cell-based
SU.86.86 [5] = assay: Induction of DNA damage in human SU8686 cells assessed as increase in gammaH2AX nuclear foci under basal condition at IC50 by fluorometry method; format: functional, cell-based

| SMILES | Activity (SU.86.86 [2]) [%] | further results |
| --- | --- | --- |
| COC1=CC(=O)[C@]2(C=C1OC)OC[C@H]1Oc3c4c(cc(O)c3C(=O)[C@H]12)OC(C)(C)C=C4 | – | Activity (SU.86.86 [1]): >30% |
| CC(C)=CCc1cc(C(=O)/C=C/c2ccc(O)cc2)c(O)cc1O [BROUSSOCHALCONE B] | >20 | Activity (SU.86.86 [1]): >30% |
| COC(C)CCOC(=O)c1cc(O)c(O)c(O)c1 (configuration not stated) | – | Activity (SU.86.86 [1]): >30% |
| CC(C)=CCc1cc(-c2coc3cc(O)ccc3c2=O)ccc1O [NEOBAVAISOFLAVONE] | >20 | Activity (SU.86.86 [3]): >20% |
| CC[C@H](C)C1C(=O)O[C@H](C(C)C)C(=O)N(C)[C@@H]([C@@H](C)CC)C(=O)O[C@H](C(C)C)C(=O)N(C)[C@@H](C(C)C)C(=O)O[C@H](C(C)C)C(=O)N1C (some centres not stated) | >20 | – |
| CCCCCC(N)=O | >20 | Activity (SU.86.86 [1]): >30% |
| C=C[C@@](C)(/C=C/c1ccc(O)cc1)CCC=C(C)C [BAKUCHIOL] | >20 | – |
| CC(C)=CCC[C@@H](C)c1ccc(C)c(O)c1 [XANTHORRIZOL] | >20 | – |
| CC(=O)c1c(O)cc(O)cc1C[C@@H]1Cc2cc(O)cc(O)c2C(=O)O1 | – | Activity (SU.86.86 [1]): >30% |
| COC(=O)/C=C/Oc1ccc(OC)cc1 | >20 | – |
| O=C1C[C@@H](c2ccccc2)Oc2cc(O)cc(O)c21 [PINOCEMBRIN] | – | Activity (SU.86.86 [1]): >30% |
| Cc1cc(O)cc2c1Oc1cc(O)c(O)c(C)c1C(=O)O2 | – | Activity (SU.86.86 [1]): >30% |
| COc1cc(O)c2c(c1)C(=O)C1=C(C2=O)[C@H](O)[C@@H](O)[C@@](C)(O)[C@@H]1O [ALTERSOLANOL A] | >20 | Activity (SU.86.86 [3]): >20% |
| CCOC(=O)c1cc(Br)c(Br)[nH]1 | >20 | – |
| Oc1cccc2c1[nH]c1c(C3=C[C@@]4(O)CC/C=C\CCCCN5CC[C@@H]3[C@]3(C[C@@H]6/C=C\CCCCN6[C@H]34)C5)nccc12 | >20 | Activity (SU.86.86 [3]): >20% |
| CC[C@H](C)[C@H]1C(=O)N[C@@H](Cc2ccc(OCC=C(C)C)cc2)C(=O)N(C)[C@@H](C)C(=O)O[C@@H](Cc2ccccc2)C(=O)N2CCC[C@H]2C(=O)N[C@H](C(=O)O)C(=O)N1C | >20 | – |
| CC1=CCC[C@H]2[C@](C)(Cc3cc(O)ccc3O)[C@@H](C)CC[C@]12C [AVAROL] | >20 | – |
| CCCCCC[C@H](C)/C=C(C)/C=C/C(=O)N[C@@H]1C[C@@]2(O[C@@H]1O)[C@@H]1O[C@@H]1C(=O)[C@@H]1O[C@@H]12 | >20 | – |
| CN1C(=O)NC(CCCNC(=O)c2cc(Br)c(Br)n2C)C1=O (configuration not stated) [MIDPACAMIDE] | >20 | – |
| O=c1[nH]c2ccccc2c(-c2ccccc2)c1O | >20 | – |
| O=c1cc(CO)occ1O [KOJIC ACID] | >20 | – |
| CC1=C(CC/C(C)=C/CC/C(C)=C/CCC2=CC(=O)OC2O)C(C)(C)CCC1 (configuration not stated) [LUFFARIELLOLIDE] | >20 | Activity (SU.86.86 [3]): >20% |
| [O-][n+]1ccc2c([nH]c3ccccc32)c1C1=C[C@@]2(O)CC/C=C\CCCCN3CC[C@@H]1[C@]1(CC/C=C\CCCCN[C@H]12)C3 | >20 | – |
| C=CC(C)(C)[C@@]12C[C@H]3C(=O)N/C(=C/c4c[nH]cn4)C(=O)N3[C@@H]1Nc1ccccc12 [ROQUEFORTINE C] | >20 | – |
| CCCc1cc(OC)cc(O)c1C(=O)Oc1c(OC)cc(CCC)c(C(=O)O)c1O | – | Activity (SU.86.86 [3]): >20% |

| SMILES | Activity (SU.86.86 [2]) [%] | further results |
| --- | --- | --- |
| O=C1C[C@H](O)[C@H]2c3ccc(O)c4c3[C@H](c3ccc(O)c1c32)[C@@H](O)CC4=O | – | Activity (SU.86.86 [3]): >20% |
| CC1=CCC[C@H]2[C@](C)(CC3=CC(=O)C=CC3=O)[C@@H](C)CC[C@]12C [AVARONE] | >20 | Activity (SU.86.86 [3]): >20% |
| Cc1cc(O)c2c(c1)C(=O)c1c(c(O)cc(O)c1-c1c(O)cc(O)c3c1C(=O)c1cc(C)cc(O)c1C3=O)C2=O [SKYRIN] | >20 | – |
| C=C1CC[C@@H]2C(C)(C)CCC[C@@]2(C)[C@@H]1CC/C(C)=C/Cn1c[n+](C)c2ncnc(NO)c21 | – | Activity (SU.86.86 [3]): >20% |
| COc1ccc(CC#N)c(O)c1 | >20 | – |
| Oc1c(Br)cc(Br)cc1Oc1ccc(Br)cc1Br | >20 | Activity (SU.86.86 [3]): >20% |
| COc1cc(O)c2c(=O)oc3cc(O)cc(C)c3c2c1 | >20 | – |
| CC[C@H](C)[C@H](NC(=O)[C@H](Cc1ccccc1)NC(=O)[C@H](CC(C)C)NC(=O)[C@@H]1CCCN1C(=O)/C1=C/N[C@@H](C(C)C)C(=O)N2CCC[C@H]2C(=O)N[C@@H](C(C)C)C(=O)N[C@@H](Cc2ccccc2)C(=O)N2CCC[C@H]2C(=O)N1)C(N)=O | – | Activity (SU.86.86 [1]): >30% |
| COC1=C(Br)[C@H](O)[C@@]2(C=C1Br)CC(C(=O)NCCCCNC(=O)C1=NO[C@]3(C=C(Br)C(OC)=C(Br)[C@@H]3O)C1)=NO2 [AEROTHIONIN] | >20 | – |
| COC1=C(Br)[C@@H](O)[C@]2(C=C1Br)CC(C(=O)NC[C@@H](O)c1cc(Br)c(OC[C@@H](O)CNC(=O)C3=NO[C@]4(C=C(Br)C(OC)=C(Br)[C@@H]4O)C3)c(Br)c1)=NO2 | >20 | – |
| COc1cc(C[C@H]2COC(=O)[C@@H]2Cc2ccc(O)c(OC)c2)ccc1O [MATAIRESINOL] | >20 | – |
| C=C1CCC[C@H]2[C@](C)(CC3=C(O)C(=O)C=C(N[C@@H](CO)C(=O)O)C3=O)[C@@H](C)CC[C@]12C | – | Activity (SU.86.86 [1]): >30% |
| CCCCCc1cc(OC)c(OC(=O)c2c(O)cc(OC)cc2CCC)c(O)c1C(=O)O | >20 | – |
| O=C1c2cccc(O)c2C(=O)c2c(O)cc(CO)cc21 [ALOE-EMODIN] | >20 | – |
| COc1cc(O)c2c(c1)C(=O)c1cc(C)c(O)cc1C2=O [MACROSPORIN] | >20 | – |
| C/C=C(\C)[C@H]1[C@@H](/C=C/C=C(\C)[C@@H](O)[C@@H](C)CO)[C@@H]2C[C@@H](OC(=O)Cc3ccccc3)[C@](C)(O)C[C@H]2[C@@H]2O[C@@]21C | >20 | Activity (SU.86.86 [4]): Active; Activity (SU.86.86 [5]): Active |
| C[C@H]1CCC/C=C\C(=O)Cc2cc(O)cc(O)c2C(=O)O1 | – | Activity (SU.86.86 [1]): >30% |
| COC(=O)c1cc(O)cc(OC)c1C(=O)c1c(O)c(Cl)c(C)c(Cl)c1O [DIHYDROGEODIN] | >20 | – |
| O=C1CCCN2[C@@H](CC1)C[C@]13CN4CCCC/C=C\CC[C@](O)(C=C(c5nccc6c5[nH]c5c(O)cccc56)[C@@H]1CC4)[C@H]23 | >20 | Activity (SU.86.86 [3]): >20% |
| C=C1[C@@H](C)[C@H]2[C@H](Cc3ccccc3)NC(=O)[C@]23[C@H](OC(C)=O)/C=C\[C@@H](C)C[C@@H](C)C/C=C\[C@H]3[C@@H]1O | – | Activity (SU.86.86 [1]): >=30% |
| Cc1cc(O)cc2c1Oc1cc(O)cc(C)c1C(=O)O2 | >20 | Activity (SU.86.86 [3]): >20% |
| COC1=C(Br)[C@H](O)[C@](O)(CC#N)C=C1Br | >20 | – |
| C/C=C1\NC(=O)[C@H](Cc2ccccc2)NC(=O)[C@@H](C(C)C)NC(=O)[C@H]([C@@H](C)CC)NC(=O)[C@H](NC(=O)[C@H](NC(=O)[C@H](CCCN)NC(=O)[C@H]2CCCN2C(=O)[C@H](NC(=O)[C@@H](NC(=O)[C@H](NC(=O)[C@H](NC(=O)CCCC(C)C)C(C)C)[C@@H](C)O)C(C)C)C(C)C)[C@@H](C)CC)C(C)OC(=O)[C@H](C(C)C)NC1=O (some centres not stated) | – | Activity (SU.86.86 [3]): >20% |
| CC(C)=CCC/C(C)=C/CC/C(C)=C/CC/C(C)=C/CC/C(C)=C/CC/C(C)=C/Cc1cc(O)ccc1O | – | Activity (SU.86.86 [4]): Active; Activity (SU.86.86 [5]): Active |
